Assay results: patent US7994209B2, “3-phenoxymethylpyrrolidine compounds” (Theravance, Inc., priority 2009, dated 2011)

Assays:
[1] = target: T1, hSERT (Homo sapiens, UniProt P31645); test: hSERT neurotransmitter uptake assay (3H-5-HT), Assay 2; format: cell-based; design: expressed in transfected cells; host or cells: HEK-293; settings: serotonin reuptake inhibition, 3H-5-HT uptake, HEK-293 hSERT cells (values without asterisk); read-out: SERT pIC50 (converted)
Experimental: (§1) Cells were harvested by centrifugation at 1100 rpm for 5 minutes, washed once by resuspension in PBS, then centrifuged. The supernatant was discarded and the cell pellet resuspended, by gentle trituration, in room temperature Krebs-Ringer bicarbonate buffer containing HEPES (10 mM), CaCl2 (2.2 mM), ascorbic acid (200 μM) and pargyline (200 μM), pH 7.4.
(§2) Test compounds were incubated for 30 minutes at 37° C. with the respective cells, prior to addition of radiolabeled neurotransmitter, ^3H-5-HT (20 nM final concentration), ^3H-NE (50 nM final concentration) or ^3H-DA (100 nM final concentration).

[2] = target: T2, hNET (Homo sapiens, UniProt P23975); test: hNET membrane radioligand binding assay (3H-nisoxetine), Assay 1
[3] = target: T1, hSERT; test: hSERT membrane radioligand binding assay (3H-citalopram), Assay 1; settings: SERT pKi, hSERT HEK-293 membranes, 1.0 nM 3H-citalopram; values given as lower bounds
[4] = target: T2, hNET; test: hNET neurotransmitter uptake assay (3H-NE), Assay 2; format: cell-based; design: expressed in transfected cells; host or cells: HEK-293; settings: norepinephrine reuptake inhibition, 3H-NE uptake, HEK-293 hNET cells (values without asterisk); read-out: NET pIC50 (converted)
Experimental: as §1, §2

T2 sequence (P23975 whole entry): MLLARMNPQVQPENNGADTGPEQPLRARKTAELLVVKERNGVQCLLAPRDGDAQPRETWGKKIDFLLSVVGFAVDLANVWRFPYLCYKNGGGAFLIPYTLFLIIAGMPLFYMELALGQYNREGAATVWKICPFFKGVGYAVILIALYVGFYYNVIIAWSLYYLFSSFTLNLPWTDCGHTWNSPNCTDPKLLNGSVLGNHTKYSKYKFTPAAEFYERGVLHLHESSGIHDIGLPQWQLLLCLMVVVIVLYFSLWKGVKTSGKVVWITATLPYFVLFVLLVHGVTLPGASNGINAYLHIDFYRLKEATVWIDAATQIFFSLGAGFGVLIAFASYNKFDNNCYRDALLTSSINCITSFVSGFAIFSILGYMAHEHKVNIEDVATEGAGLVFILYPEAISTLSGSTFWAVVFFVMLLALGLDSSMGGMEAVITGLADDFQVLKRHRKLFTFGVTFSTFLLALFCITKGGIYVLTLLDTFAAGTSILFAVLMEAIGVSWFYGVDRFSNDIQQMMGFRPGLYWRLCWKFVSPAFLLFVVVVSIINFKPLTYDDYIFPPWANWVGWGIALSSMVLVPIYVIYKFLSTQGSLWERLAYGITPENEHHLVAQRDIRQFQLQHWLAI
T1 sequence (P31645 whole entry): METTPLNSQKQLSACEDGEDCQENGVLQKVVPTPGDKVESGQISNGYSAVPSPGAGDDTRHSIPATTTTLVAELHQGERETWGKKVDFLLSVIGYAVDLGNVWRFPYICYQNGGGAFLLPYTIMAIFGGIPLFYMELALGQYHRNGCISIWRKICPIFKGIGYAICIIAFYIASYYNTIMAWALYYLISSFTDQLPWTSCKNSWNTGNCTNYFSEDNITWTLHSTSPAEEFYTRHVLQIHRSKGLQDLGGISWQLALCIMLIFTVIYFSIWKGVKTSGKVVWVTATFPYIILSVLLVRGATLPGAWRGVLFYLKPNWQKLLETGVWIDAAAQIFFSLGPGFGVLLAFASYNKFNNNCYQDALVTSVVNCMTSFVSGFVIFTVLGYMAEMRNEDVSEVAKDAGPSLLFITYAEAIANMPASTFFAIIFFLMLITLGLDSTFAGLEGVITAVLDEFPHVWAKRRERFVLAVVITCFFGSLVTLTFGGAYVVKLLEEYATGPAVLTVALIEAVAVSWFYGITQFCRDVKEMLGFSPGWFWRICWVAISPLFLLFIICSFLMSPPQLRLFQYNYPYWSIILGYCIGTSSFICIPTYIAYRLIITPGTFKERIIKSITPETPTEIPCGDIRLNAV

Compound	IC50 [1] [nM]	Ki [2] [nM]	Ki [3] [nM]	IC50 [4] [nM]
CC[C@H](Oc1ccc(Cl)cc1Cl)[C@H]1CCNC1 [Example 1, (S)-3-[(S)-1-(2,4-Dichlorophenoxy)propyl]pyrrolidine]	≤ 10	≤ 10	≤ 10	≤ 10
CC[C@H](Oc1cccc(Cl)c1)[C@H]1CCNC1 [Example 2-1, (S)-3-[(S)-1-(3-Chlorophenoxy)propyl]pyrrolidine]	≤ 100	≤ 10	≤ 100	≤ 10
CC[C@H](Oc1ccc(Cl)cc1)[C@H]1CCNC1 [Example 2-2, (S)-3-[(S)-1-(4-Chlorophenoxy)propyl]pyrrolidine]	≤ 10	≤ 10	≤ 10	≤ 10
CC[C@H](Oc1ccc(Cl)c(F)c1)[C@H]1CCNC1 [Example 2-5, (S)-3-[(S)-1-(4-Chloro-3-fluorophenoxy)propyl]pyrrolidine]	≤ 10	≤ 10	≤ 10	≤ 10
CC[C@H](Oc1ccc(Cl)c(Cl)c1)[C@H]1CCNC1 [Example 2-7, (S)-3-[(S)-1-(3,4-Dichlorophenoxy)propyl]pyrrolidine]	≤ 10	≤ 10	≤ 10	≤ 10
CC[C@H](Oc1ccc(Cl)c(C)c1)[C@H]1CCNC1 [Example 2-13, (S)-3-[(S)-1-(4-Chloro-3-methylphenoxy)propyl]pyrrolidine]	≤ 10	≤ 10	≤ 10	≤ 10
CC[C@H](Oc1cc(Cl)cc(Cl)c1)[C@H]1CCNC1 [Example 2-18, (S)-3-[(S)-1-(3,5-Dichlorophenoxy)propyl]pyrrolidine]	≤ 100	≤ 100	≤ 10	≤ 100
CC[C@@H](Oc1cc(Cl)cc(Cl)c1)[C@@H]1CCNC1 [Example 2-19, (R)-3-[(R)-1-(3,5-Dichlorophenoxy)propyl]pyrrolidine]	≤ 100	≤ 10	≤ 10	≤ 100
CC[C@H](Oc1ccc(F)c(Cl)c1)[C@H]1CCNC1 [Example 2-21, (S)-3-[(S)-1-(3-Chloro-4-fluorophenoxy)propyl]pyrrolidine]	≤ 100	≤ 10	≤ 10	≤ 10
CC[C@H](Oc1cc(F)c(OC)c(F)c1)[C@H]1CCNC1 [Example 2-22, (S)-3-[(S)-1-(3,5-Difluoro-4-methoxyphenoxy)propyl]pyrrolidine]	≤ 100	≤ 10	≤ 10	≤ 10
CC[C@H](Oc1ccccc1Cl)[C@H]1CCNC1 [Example 2-23, (S)-3-[(S)-1-(2-Chlorophenoxy)propyl]pyrrolidine]	≤ 100	≤ 10	≤ 10	≤ 10
CC[C@H](Oc1c(F)cccc1Cl)[C@H]1CCNC1 [Example 2-25, (S)-3-[(S)-1-(2-Chloro-6-fluorophenoxy)-propyl]pyrrolidine]	≤ 100	≤ 10	≤ 10	≤ 10
CC[C@H](Oc1c(C)cccc1Cl)[C@H]1CCNC1 [Example 2-27, (S)-3-[(S)-1-(2-Chloro-6-methylphenoxy)propyl]pyrrolidine]	≤ 100	≤ 10	≤ 10	≤ 10
CC[C@H](Oc1cccc(Cl)c1Cl)[C@H]1CCNC1 [Example 2-28, (S)-3-[(S)-1-(2,3-Dichlorophenoxy)propyl]pyrrolidine]	≤ 10	≤ 10	≤ 10	≤ 10
CC(C)CC(Oc1cccc(F)c1)C1CCNC1 (stereo not drawn) [Example 10-26, 3-[1-(3-Fluorophenoxy)-3-methylbutyl]pyrrolidine]	≤ 10	–	≤ 10	≤ 10
Clc1ccc(O[C@@H](C2CC2)[C@H]2CCNC2)c(C2CCCCC2)c1 [Example 16-43, (S)-3-[(S)-(4-Chloro-2-cyclohexylphenoxy)cyclopropylmethyl]pyrrolidine]	–	≤ 10	≤ 100	–
Cc1cccc(Cl)c1O[C@@H](C1CC1)[C@H]1CCNC1 [Example 16-45, (S)-3-[(S)-(2-Chloro-6-methylphenoxy)cyclopropylmethyl]pyrrolidine]	–	≤ 10	≤ 100	–
Cc1ccc(Cl)c(O[C@@H](C2CC2)[C@H]2CCNC2)c1F [Example 16-68, (S)-3-[(S)-(6-Chloro-2-fluoro-3-methylphenoxy)cyclopropylmethyl]pyrrolidine]	–	≤ 10	≤ 100	–
Cc1ccc(Cl)c(O[C@H](C2CC2)[C@H]2CCNC2)c1F [Example 16-69, (S)-3-[(R)-(6-Chloro-2-fluoro-3-methylphenoxy)cyclopropylmethyl]pyrrolidine]	–	≤ 10	≤ 100	–

Compound	IC50 [1] [nM]	Ki [2] [nM]	Ki [3] [nM]	IC50 [4] [nM]
COc1ccc(Cl)c(O[C@@H](C2CC2)[C@H]2CCNC2)c1F [Example 16-70, (S)-3-[(S)-(6-Chloro-2-fluoro-3-methoxyphenoxy)cyclopropylmethyl]pyrrolidine]	–	≤ 10	≤ 100	–
Clc1cc(Cl)c(O[C@@H](C2CC2)[C@H]2CCNC2)cc1Cl [Example 16-71, (S)-3-[(S)cyclopropyl-(2,4,5-trichlorophenoxy)methyl]pyrrolidine]	–	≤ 100	≤ 10	–
Fc1cc(Cl)cc(Cl)c1O[C@@H](C1CC1)[C@H]1CCNC1 [Example 16-75, (S)-3-[(S)cyclopropyl-(2,4-dichloro-6-fluorophenoxy)methyl]pyrrolidine]	–	≤ 10	≤ 10	–
Cc1cc(Cl)cc(C)c1O[C@@H](C1CC1)[C@H]1CCNC1 [Example 16-82, (S)-3-[(S)-(4-Chloro-2,6-dimethylphenoxy)cyclopropylmethyl]pyrrolidine]	–	≤ 100	≤ 10	–
Cc1cc(O[C@@H](C2CC2)[C@H]2CCNC2)c(Cl)c(C)c1Cl [Example 16-83, (S)-3-[(S)cyclopropyl-(2,4-dichloro-3,5-dimethylphenoxy)-methyl]pyrrolidine]	–	≤ 100	≤ 10	–
Fc1ccc(O[C@H](C2CC2)[C@@H]2CCNC2)cc1Cl [Example 16-90, (R)-3-[(R)-(3-Chloro-4-fluorophenoxy)cyclopropylmethyl]pyrrolidine]	–	≤ 100	≤ 10	–
Fc1cc(O[C@H](C2CC2)[C@@H]2CCNC2)ccc1Cl [Example 16-92, (R)-3-[(R)-(4-Chloro-3-fluorophenoxy)cyclopropylmethyl]pyrrolidine]	–	≤ 100	≤ 10	–
Clc1ccc(O[C@H](C2CC2)[C@H]2CCNC2)cc1 [Example 16-102, (S)-3-[(R)-(4-Chlorophenoxy)cyclopropylmethyl]pyrrolidine]	–	≤ 100	≤ 10	–
FC(F)(F)c1ccc(O[C@@H](C2CC2)[C@H]2CCNC2)cc1 [Example 16-104, (S)-3-[(S)cyclopropyl-(4-trifluoromethylphenoxy)methyl]pyrrolidine]	–	≤ 100	≤ 10	–
Fc1ccccc1O[C@H](C1CCCCC1)[C@H]1CCNC1 [Example 20-1, (S)-3-[(R)-Cyclohexyl-(2-fluorophenoxy)methyl]pyrrolidine]	–	≤ 10	≤ 100	–
COc1ccccc1OC(C1CCCCC1)C1CCNC1 (stereo not drawn) [Example 20-2, 3-[Cyclohexyl-(2-methoxyphenoxy)methyl]pyrrolidine]	–	≤ 100	≤ 100	–
O=[N+]([O-])c1ccccc1O[C@H](C1CCCCC1)[C@H]1CCNC1 [Example 20-3, (S)-3-[(R)-Cyclohexyl-(2-nitrophenoxy)methyl]pyrrolidine]	–	≤ 10	≤ 100	–
CC(=O)c1ccccc1O[C@@H](C1CCCCC1)[C@@H]1CCNC1 [Example 20-4, 1-[2-((R)-Cyclohexyl-(S)-pyrrolidin-3-yl-methoxy)phenyl]ethanone]	–	≤ 10	≤ 100	–
Clc1cc(Cl)cc(OC(C2CCCCC2)C2CCNC2)c1 (stereo not drawn) [Example 20-6, 3-[Cyclohexyl-(3,5-dichlorophenoxy)methyl]pyrrolidine]	–	≤ 10	≤ 10	–
Fc1cccc(O[C@H](C2CCCCC2)[C@H]2CCNC2)c1 [Example 20-7, (S)-3-[(R)-Cyclohexyl-(3-fluorophenoxy)methyl]pyrrolidine]	–	≤ 10	≤ 100	–
FC1(F)CCC(C(Oc2cc(Cl)cc(Cl)c2)C2CCNC2)CC1 (stereo not drawn) [Example 21, 3-[(3,5-Dichloro-phenoxy)-(4,4-difluorocyclohexyl)methyl]pyrrolidine]	–	≤ 10	≤ 10	–
Clc1ccc(O[C@@H](C2CC2)[C@H]2CCNC2)c2ccccc12 [Example 23-2, (S)-3-[(S)-(4-Chloronaphthalen-1-yloxy)cyclopropylmethyl]pyrrolidine]	–	≤ 10	≤ 100	–
C=CC[C@@H](Oc1ccc(Cl)cc1C)[C@H]1CCNC1 [Example 25-2, (S)-3-[(R)-1-(4-Chloro-2-methylphenoxy)but-3-enyl]pyrrolidine]	–	≤ 100	≤ 10	–
C#CC(Oc1ccc(Cl)cc1C)[C@H]1CCNC1 (stereo partly drawn) [Example 27-2, (S)-3-[1-(4-Chloro-2-methylphenoxy)prop-2-ynyl]pyrrolidine]	–	≤ 100	≤ 10	–
